Measurements published in patent US20210290721A1, “ORAL FORMULATIONS FOR PROMOTING CELLULAR PURIFICATION” (NSE Products, Inc., priority 2011, published 2021).

Key:
iNOS/Nos2 = test: RT-qPCR expression of iNOS/Nos2 in lung of young mice; assay type: in vivo, C57BL/6J mice; settings: diet supplemented from 8 to 22 weeks of age, treated vs YC
Source text: C57BL/6J mice were obtained at 6 weeks of age and individually housed in shoebox cages and provided with 24 grams (˜84 kcal) of AIN-93^M diet per week (7 grams on Monday and Wednesday and 10 grams on Friday). Starting at 8 weeks of age and continuing until 22 weeks of age, mice were either 1) maintained on the AIN93^M diet (Young Controls, YC); 2) fed a Calorie Restricted (CR) diet providing 63 kcal/week of a modified AIN93^M formulation; or 3) were assigned to an AIN93^M diet supplemented with one of several plant extracts, vitamins or phytochemicals; the amount of each ingredient per kilogram diet varied depending on the experimental ingredient studied. At 22 weeks of age, tissues were collected from mice, flash-frozen in liquid nitrogen and stored at −80° C. for later analysis.
To determine if CR or an ingredient positively influenced the Nrf2 pathway to regulate expression of xenobiotic metabolism genes and oxidative stress genes and/or positively influenced genes responsible for regulation of inflammation, we performed quantitative real-time PCR (RT-qPCR) analysis on RNA isolated from entire livers and lungs from all groups of mice. Briefly, the magnitude of change was determined for each gene, comparing the young control (YC) group vs. the caloric or energy restriction (CR) group and YC vs. Treated mice. […]

GCLC = test: RT-qPCR expression of GCLC in gastrocnemius muscle of old mice; assay type: in vivo, B6C3F1 mice; settings: for effect on age-related decreases in the expression of GCLC: YC vs OC and OC vs old treated mice; for GCLC expression: diet supplemented from 14 to 30 months of age, old treated vs old controls (OC)
Source text: (§1) B6C3F1 mice were obtained and housed as in Example 1. For the young control (YC) group, starting at 8 weeks of age and continuing until 22 weeks of age, mice were maintained on the AIN93^M diet; For the old animal groups, starting at 14 months of age and continuing until 30 months of age, mice were either 1) maintained on the AIN93^M diet (old controls, OC); 2) fed a calorie or energy restricted (CR) diet providing 63 kcal/week of a modified AIN93^M formulation; or 3) were assigned to an AIN93^M diet supplemented with one of several plant extracts, vitamins or phytochemicals; the amount of each ingredient per kilogram diet varied depending on the experimental ingredient studied. At the end of the feeding period, tissues were collected from the gastrocnemius muscles of the mice, flash-frozen in liquid nitrogen and stored at −80° C. for later analysis.
To determine if CR or an ingredient opposed age-related declines in the Nrf2 pathway to regulate expression of xenobiotic metabolism genes and oxidative stress genes, we performed quantitative real-time PCR (RT-qPCR) analysis on RNA isolated from gastrocnemius muscle from all groups of mice. The magnitude of change was determined for each gene (YC vs. OC and OC vs Old treated mice). Two-tailed t-tests (assuming equal variance) were used to determine if the change in expression for individual genes was statistically significant. The magnitude of the change in expression is reported as “fold change” values which are log 2-adjusted to fit normality assumptions for statistical analyses.
A panel of 5 genes representative of the Nrf2 pathway was selected for screening the ingredients: GCLM, GCLC, GSR, GSTA1, and NQO1. Ingredients screened in the muscle included: alpha lipoic acid, CoQ10, Pomegranate, Resveratrol and others.

[1] = tested on: Nrf2/ARE/detoxification related genes; test: RT-qPCR gene expression screening in liver of young mice fed ingredient-supplemented diet; assay type: in vivo, C57BL/6J mice; settings: diet supplemented from 8 to 22 weeks of age, treated vs young control (YC)
GSR = test: RT-qPCR expression of GSR in gastrocnemius muscle of old mice; assay type: in vivo, B6C3F1 mice
Source text: as §1, with “analysis. To determine if CR or an ingredient opposed age-related declines in the Nrf2 pathway to regulate expression of xenobiotic metabolism genes and oxidative stress genes, we performed quantitative real-time PCR (RT-qPCR) analysis on RNA isolated from gastrocnemius muscle from all groups of mice. The magnitude of change was determined for each gene (YC vs. OC and OC vs Old treated mice). Two-tailed t-tests (assuming equal variance) were used to determine if the change in expression for individual genes was statistically significant. […]” for “analysis.”

| SMILES | change in iNOS/Nos2 expression in the lung (iNOS/Nos2) | effect on age-related decreases in the expression of GCLC (GCLC) | GCLC expression (GCLC) | gene expression changes in the liver (impact of ingredient) [1] | effect on age-related decreases in the expression of GSR (GSR; YC vs OC and OC vs old treated mice) | GSR expression (GSR; diet supplemented from 14 to 30 months of age, old treated vs OC) |
| --- | --- | --- | --- | --- | --- | --- |
| COC1=C(OC)C(=O)C(C/C=C(\C)CC/C=C(\C)CC/C=C(\C)CC/C=C(\C)CC/C=C(\C)CC/C=C(\C)CC/C=C(\C)CC/C=C(\C)CC/C=C(\C)CCC=C(C)C)=C(C)C1=O [CoQ10, coenzyme Q10] | Modest downregulation | opposed age related decreases | upregulated | – | – | – |
| O=C(O)CCCCC1CCSS1 (stereo not drawn) [alpha lipoic acid] | – | opposed age-related decreases | upregulated | greatest positive impact | opposed age-related decreases | upregulated |
| O=c1c(O)c(-c2ccc(O)c(O)c2)oc2cc(O)cc(O)c12 [quercetin, Quercetin] | Modest downregulation | – | – | – | – | – |
